23 compounds from ChEMBL document CHEMBL1201862, “PubChem BioAssay data set” (2004) can be followed below.

What is called AC50 is the concentration giving half of the maximal activity seen. As a reminder, the EC50 is the concentration needed to bring the measured effect to its halfway point.

Each structure is given as a SMILES string. Activity calls are given as the source filed them.

One assay concerns the target Cytochrome P450 2C9 (Homo sapiens, UniProt P11712).
For the next assay, the target named is T1, Cytochrome P450 1A2 (Homo sapiens, UniProt P05177).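 Also: PubChem cytochrome P450 panel assay, CYP1A2 panel member.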
T1 sequence (P05177 whole entry): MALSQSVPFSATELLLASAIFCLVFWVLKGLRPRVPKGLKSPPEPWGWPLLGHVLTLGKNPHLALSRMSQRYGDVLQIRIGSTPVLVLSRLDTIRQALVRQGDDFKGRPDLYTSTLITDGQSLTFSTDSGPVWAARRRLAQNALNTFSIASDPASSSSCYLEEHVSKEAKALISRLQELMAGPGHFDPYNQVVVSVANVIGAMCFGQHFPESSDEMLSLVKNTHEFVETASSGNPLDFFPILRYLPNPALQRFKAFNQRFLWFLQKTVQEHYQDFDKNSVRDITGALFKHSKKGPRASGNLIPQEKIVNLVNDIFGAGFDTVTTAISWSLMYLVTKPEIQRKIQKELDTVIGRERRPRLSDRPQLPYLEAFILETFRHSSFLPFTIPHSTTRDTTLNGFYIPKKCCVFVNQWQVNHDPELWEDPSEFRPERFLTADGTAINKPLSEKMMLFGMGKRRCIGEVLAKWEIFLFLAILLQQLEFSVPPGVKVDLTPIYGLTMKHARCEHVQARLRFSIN

A further assay addresses Cytochrome P450 3A4 (Homo sapiens, UniProt P08684).
Assay [1] concerns the target T2, Heat shock factor protein 1 (Mus musculus, UniProt P38532).
T2 sequence (P38532 whole entry): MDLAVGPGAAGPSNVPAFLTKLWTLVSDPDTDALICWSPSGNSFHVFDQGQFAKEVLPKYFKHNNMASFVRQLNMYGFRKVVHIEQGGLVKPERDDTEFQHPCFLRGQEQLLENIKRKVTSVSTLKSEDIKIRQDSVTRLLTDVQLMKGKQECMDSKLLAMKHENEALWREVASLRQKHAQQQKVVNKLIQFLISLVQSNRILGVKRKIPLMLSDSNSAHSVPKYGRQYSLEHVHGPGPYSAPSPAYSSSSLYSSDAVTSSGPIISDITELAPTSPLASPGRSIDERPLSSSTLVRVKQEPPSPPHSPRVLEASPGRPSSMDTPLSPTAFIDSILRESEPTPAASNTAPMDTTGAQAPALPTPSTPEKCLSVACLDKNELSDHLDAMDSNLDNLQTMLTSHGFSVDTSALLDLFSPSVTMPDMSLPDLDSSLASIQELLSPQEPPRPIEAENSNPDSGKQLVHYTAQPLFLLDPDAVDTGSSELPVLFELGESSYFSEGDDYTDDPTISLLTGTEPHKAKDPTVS
As to the kind of experiment: HSF1 potentiators in luciferase reporter cells, confirmation, cell-based, NIH3T3, luminescence, dose retest (AID 435004).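 Also: stress induced by proteasome inhibitor MG132 added 30 min after compound; luciferase reporter driven by HSF1 response element in NIH3T3 cells; actives raise luminescence as potentiators of the MG132 stress response.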 In kind it is functional.

A further assay deals with Cytochrome P450 2C19 (Homo sapiens, UniProt P33261). As to the kind of experiment: Cytochrome panel assay with activity outcomes. Panel member name: p450-cyp2c19 Compounds with AC50 equal or less than 10 uM are considered active. Type of assay: functional. As to conditions: read-out: AC50.
Cytochrome P450 2C19, sequence (P33261 whole entry): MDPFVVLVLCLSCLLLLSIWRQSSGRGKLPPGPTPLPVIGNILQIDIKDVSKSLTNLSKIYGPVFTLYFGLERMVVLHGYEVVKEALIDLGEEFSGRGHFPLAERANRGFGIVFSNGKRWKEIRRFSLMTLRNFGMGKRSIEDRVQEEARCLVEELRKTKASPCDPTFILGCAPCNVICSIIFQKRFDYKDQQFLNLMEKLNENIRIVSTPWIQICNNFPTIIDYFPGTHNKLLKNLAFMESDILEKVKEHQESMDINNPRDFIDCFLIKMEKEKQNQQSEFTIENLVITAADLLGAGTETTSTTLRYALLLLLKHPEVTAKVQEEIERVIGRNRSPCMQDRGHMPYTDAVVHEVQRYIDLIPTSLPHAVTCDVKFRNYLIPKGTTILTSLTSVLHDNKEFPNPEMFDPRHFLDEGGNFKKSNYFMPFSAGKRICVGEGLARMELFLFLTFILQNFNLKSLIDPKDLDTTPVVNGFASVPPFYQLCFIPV

Cytochrome P450 2C9, sequence (P11712 whole entry): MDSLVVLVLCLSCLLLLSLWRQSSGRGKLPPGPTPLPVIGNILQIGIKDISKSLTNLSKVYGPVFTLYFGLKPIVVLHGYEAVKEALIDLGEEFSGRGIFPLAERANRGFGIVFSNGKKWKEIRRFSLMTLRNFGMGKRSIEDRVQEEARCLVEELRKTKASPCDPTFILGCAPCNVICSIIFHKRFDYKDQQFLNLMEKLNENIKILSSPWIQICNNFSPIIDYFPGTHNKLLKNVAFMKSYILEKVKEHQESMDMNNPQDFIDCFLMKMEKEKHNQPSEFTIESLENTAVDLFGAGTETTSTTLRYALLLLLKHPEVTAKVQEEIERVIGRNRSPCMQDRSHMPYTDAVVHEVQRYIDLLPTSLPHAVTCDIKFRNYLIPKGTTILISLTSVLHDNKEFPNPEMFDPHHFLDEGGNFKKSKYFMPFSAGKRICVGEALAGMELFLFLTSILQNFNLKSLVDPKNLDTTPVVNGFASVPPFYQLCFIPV
Cytochrome P450 3A4, sequence (P08684 whole entry): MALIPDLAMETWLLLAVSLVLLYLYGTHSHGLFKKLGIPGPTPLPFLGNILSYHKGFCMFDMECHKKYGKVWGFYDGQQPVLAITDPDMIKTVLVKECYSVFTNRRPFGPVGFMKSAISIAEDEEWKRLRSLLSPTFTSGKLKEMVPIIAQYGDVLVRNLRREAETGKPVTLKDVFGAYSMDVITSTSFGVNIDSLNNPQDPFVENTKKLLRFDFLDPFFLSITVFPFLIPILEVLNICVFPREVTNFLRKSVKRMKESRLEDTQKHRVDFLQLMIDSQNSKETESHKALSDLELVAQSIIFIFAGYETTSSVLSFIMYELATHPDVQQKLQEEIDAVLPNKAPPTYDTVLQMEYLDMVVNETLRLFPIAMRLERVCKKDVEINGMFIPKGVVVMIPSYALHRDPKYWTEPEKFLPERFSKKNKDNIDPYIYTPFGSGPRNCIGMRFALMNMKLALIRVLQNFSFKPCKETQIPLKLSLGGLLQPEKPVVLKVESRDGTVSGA

For `Cc1c(Nc2cc(N3CCCC(C)C3)c3nonc3c2[N+](=O)[O-])c(=O)n(-c2ccccc2)n1C` (stereo not drawn), at Cytochrome P450 2C9, the AC50 was 2.51 µM (inconclusive).

Turning to `O=C(c1cc(C(F)(F)F)cc(C(F)(F)F)c1)N1CCC2(CC1)CN(Cc1ccncc1)C2`, the AC50 on Cytochrome P450 1A2 was 20 µM (inconclusive); on Cytochrome P450 3A4 it was 15.8 µM (inconclusive).

On to `C[C@H]1O[C@@H](CC(=O)O)Cc2c(O)c3c(c(O)c21)C(=O)C=C(C1=CC(=O)c2c(O)c4c(c(O)c2C1=O)C[C@H](CC(=O)O)O[C@@H]4C)C3=O`, for which the AC50 on Cytochrome P450 2C9 is 7.94 µM (inconclusive).

Regarding `CCOC(=O)C1CCN(C(=O)c2ccc3c(Cl)c4c(nc3c2)CCCC4)CC1`, in assay [1], the EC50 was 15.8 µM (active).

With `Cc1nn(-c2ccccc2)c2sc(C(=O)N(Cc3ccco3)C(C)C(=O)NC(C)(C)C)cc12` (stereo not drawn), the EC50 in assay [1] is > 260 µM (inactive).

Consider `COc1ccc(S(=O)(=O)Nc2ccccc2C(F)(F)F)cc1`, for which the EC50 in assay [1] is > 260 µM (inactive).

As for `O=C(Nc1cccn2ncnc12)C(F)(F)F`, the EC50 in assay [1] is > 260 µM (inactive).

Turning to `Cc1ccccc1N(C(=O)Cc1cccs1)C(C(=O)NCC1CCCO1)c1cccnc1` (stereo not drawn), the figures for the AC50 on Cytochrome P450 3A4, at Cytochrome P450 2C9 and at Cytochrome P450 2C19 were 1 µM (inconclusive), 22.4 µM (inconclusive) and 28.2 µM (inconclusive), respectively.

On to `CN(C)c1ccc(CNC(=O)c2ccc(CNc3c(N4CCCCC4)c(=O)c3=O)cc2)cc1`, for which the EC50 in assay [1] was > 260 µM (inactive).

`COc1ccc(NS(=O)(=O)c2ccc(NC(=O)c3cnn4c(C(F)F)cc(-c5ccc(C)cc5)nc34)cc2)cc1`: the AC50 was 0.891 µM (inconclusive) on Cytochrome P450 1A2, 3.55 µM (inconclusive) on Cytochrome P450 2C9 and 2.24 µM (inconclusive) on Cytochrome P450 2C19.

In the case of `O=C(O)CN1C(=O)/C(=C/c2ccccc2Br)Oc2ccccc21`, the EC50 in assay [1] is > 260 µM (inactive).

As to `Cc1ccc(C(c2nnnn2CC2CCCO2)N2CCN(C(=O)c3ccco3)CC2)cc1` (stereo not drawn), the AC50 at Cytochrome P450 2C9 was 25.1 µM (inconclusive).

In the case of `c1ccc(Nc2c(-c3ccco3)nc3ccccn23)cc1`, the EC50 in assay [1] was 151 µM (active).

With `COC(=O)c1cc2c(ccn2-c2ccc(F)cc2)n1Cc1ccc(C#N)cc1`, the EC50 in assay [1] was > 260 µM (inactive).

In the case of `NC(=O)CI` [IODOACETAMIDE], the AC50 was 31.6 µM (inconclusive) on Cytochrome P450 1A2, 39.8 µM (inconclusive) on Cytochrome P450 2C9 and 39.8 µM (inconclusive) on Cytochrome P450 2C19.

For `COc1ccc2c(c1)c(C(=O)CN1CCCCC1)c(C)n2C`, the EC50 in assay [1] was > 260 µM (inactive).

`COc1ccc(N2CCN(Cc3nc4c(c(=O)n(C)c(=O)n4C)n3CC(C)=O)CC2)cc1`: at Cytochrome P450 2C9, the AC50 was 28.2 µM (inconclusive).

For the compound `CC1(C)Oc2cc(N)c([N+](=O)[O-])cc2O1`, the AC50 on Cytochrome P450 2C9 was 35.5 µM (inconclusive).

As to `Cc1cc(C)c(S(=O)(=O)N2CCCC(C(=O)NCCC3=CCCCC3)C2)c(C)c1` (stereo not drawn), the EC50 in assay [1] was > 260 µM (inactive).

In the case of `COCCn1c(=O)c(-c2cc(F)cc(F)c2)nc2cnc(OC)nc21`, the AC50 on Cytochrome P450 2C9 and on Cytochrome P450 2C19 was 39.8 µM (inconclusive) throughout.

As to `Cc1nn(C)cc1C(=O)NN=C(S)Nc1ccccc1`, the values for the AC50 at Cytochrome P450 1A2, on Cytochrome P450 2C9 and on Cytochrome P450 2C19 were 15.8 µM (inconclusive), 39.8 µM (inconclusive) and 22.4 µM (inconclusive), respectively.

Take `N#CCc1c(C#N)c(N)nc(N2CCN(S(=O)(=O)c3ccccc3F)CC2)c1C#N`: the EC50 in assay [1] is > 260 µM (inactive).

For `COc1ccc(C2Nc3ccccc3C(=O)N2Cc2ccco2)cc1COc1ccc(F)cc1` (stereo not drawn), the EC50 in assay [1] was > 260 µM (inactive).
